Results from patent US10596296B2, “Heparan sulphates” (Agency for Science, Technology and Research, priority 2014, dated 2020).
Entries after “also recorded” stand apart in the source; their conditions may differ.

How the values were obtained:
[1] = system: chondrogenic differentiation of hMSCs; experiment: Alcian blue staining of chondrogenic micromass pellets; type: cell-based, human
Experimental: (§1) In order to assess the effects of HS16+ve on the chondrogenic differentiation of hMSCs in vitro, it was first necessary to establish the effects of TGF-β1 alone. Chondrogenic differentiation was carried out using a modified micromass culture system. [Zhang, L., et al., Chondrogenic differentiation of human mesenchymal stem cells: a comparison between micromass and pellet culture systems. Biotechnol Lett, 2010. 32(9): p. 1339-1346.]. Briefly, passage 4 hMSCs were harvested and resuspended in chemically defined chondrogenic media (PT-3003, Lonza, MD, USA) at 2×10^7 cells/mL. Droplets of 12.5 μL were then seeded into the middle of each well in a 24-well plate and left to adhere at 37° C. for 2 h, after which, 500 μL of chondrogenic media supplemented with either 1 or 10 ng/mL of TGF-β1 (100-210, PeproTech) alone or with either 5 or 10 μg/mL of heparin (Sigma-Aldrich), porcine mucosal HS (HSPM) (Celsus laboratories), HS16+ve or HS16-ve was added to each well. The cell droplets coalesced into spherical masses after 24 h. Media was changed every 3 days and the micromasses harvested on days 3, 7, 14 and 21.

[2] = system: chondrogenic differentiation of hMSCs; experiment: Wet weight of chondrogenic micromass pellets; type: cell-based, human; settings: 10 ng/mL TGF-β1 vs control; days 3, 7, 14 and 21
Experimental: as §1
Wet weights of the resulting control (Ctrl) and TGF-β1-treated (10 ng/mL) (TGF-β1) micromass pellets were taken at days 3, 7, 14 and 21 (FIG. 15).

[3] = target: T1, TGF-β1 (Homo sapiens, UniProt P01137); experiment: Differential scanning fluorimetry (DSF) of TGF-β1; type: binding
T1 construct: full length mature TGF-β1 is 112 amino acids in length
T1 sequence (P01137 279-390 limits assumed): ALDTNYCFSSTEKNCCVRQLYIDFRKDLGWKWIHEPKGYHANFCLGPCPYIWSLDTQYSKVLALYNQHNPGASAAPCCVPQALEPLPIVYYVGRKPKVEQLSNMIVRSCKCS
Experimental: DSF was performed on a 7500 Fast Real PCR System (software version 1.4, Applied Biosystems), as described previously (34,35). TGF-β1 (2.5 μM) was tested with or without heparin (25 μM). To facilitate the melting of TGF-β1, 10 mM of dithiothreitol (DTT) was added to the reaction mix. Experiments were run as previously described (34). First derivatives of the melting curves were calculated using Origin 7 (OriginLab Corp.) to determine the melting temperature of TGF-β1 under the various conditions.

[4] = system: chondrogenic differentiation of hMSCs; experiment: qPCR of chondrogenic micromass pellets (Example 2); type: cell-based, human
Experimental: Total RNA was isolated from chondrogenic micromass pellets using TRIZOL reagent (Life Technologies, CA, USA) according to the manufacturer's protocol. Reverse transcription was carried out on 1 μg RNA using the SuperScript® VILO™ cDNA Synthesis Kit (Life Technologies) following the manufacturer's instructions, with the incubation at 42° C. being carried out for 2 h instead of 1 h. Each qPCR contained 40 ng cDNA, 1 μL TaqMan® primer-probe mix per gene, and 10 μL Taqman® Fast Universal PCR Master Mix (Life Technologies) in a final volume of 20 μL. Thermal cycling conditions were 95° C. for 20 s, followed by 45 cycles of 95° C. for 1 s and 60° C. for 20 s. Each qPCR was run in duplicate and gene expression was normalised to HPRT1 expression to obtain the ΔCt value. The average value of biological triplicates was taken. Chondrogenic micromass pellets cultured in media without GAG or TGF-β1 were used as controls (ΔΔCt). Relative expression levels for each primer set were expressed as fold changes by the 2-ΔΔCt method [Livak, K. J. and T. D. Schmittgen, Analysis of Relative Gene Expression Data Using Real-Time Quantitative PCR and the 2-ΔΔCT Method. Methods, 2001. 25(4): p. 402-408]. The following TaqMan® primer-probe assays (Life technologies) were used:
as §1
Next, hMSCs were differentiated for 21 days in the presence of 1 ng/mL TGF-β1 alone (1 TGF-β1) or in combination with 10 μg/mL of GAG (heparin, HSPM, HS16+ve or HS16−ve) or with 10 ng/mL TGF-β1 (10 TGF-β1) as a positive control.

[5] = system: TGF-β1 signaling (pSMAD2, pSMAD3) in hMSCs; experiment: Western blotting of pSMAD2/pSMAD3 in hMSCs treated with TGF-β1 and GAG; type: cell-based, human; settings: 6, 12, 24 and 48 h
Experimental: Primary hMSCs (Lonza) were isolated from the bone marrow mononuclear cells of a young healthy adult human donor by plastic adherence and characterized as previously described (30,31). The adherent cells were maintained in a basal media consisting of DMEM-low glucose (1000 mg/l, DMEM-LG) supplemented with 10% fetal calf serum, 100 U/ml penicillin, 100 μg/ml streptomycin and 2 mM L-glutamine, and cultured under standard conditions at 37° C. and 5% CO2 in a humidified atmosphere. Media replacement was every three days. Cells were detached with 0.125% trypsin/Versene (pH 7.0) upon reaching 75-80% confluence, and re-plated at a density of 3,000 cells/cm^2 under the same culture conditions. All experiments were carried out with cells at passage 5.
Human MSCs were cultured in 6-well plates in basal media for 24 h at a density of 10,000 cells/cm^2. TGF-β1 treatments were then prepared at either 1 ng/ml or 5 ng/ml alone or in the presence of either 10 μg/ml or 40 μg/ml of full length heparin, or 1 ng/ml of TGF-β1 with 10 μg/ml size-fractionated or selectively desulfated heparin, HS^PM, HS16+ or HS16−, and incubated at room temperature for 10 min before being added to the cells. Latent TGF-β1 (LTGF-β1) treatments were similarly prepared at 3.3 ng/ml alone or with 10 μg/ml of the various GAGs described above. For inhibitor studies, the cells were pre-treated for 30 min with 10 μM SB431542 (Sigma-Aldrich) or DMSO before treatment with TGF-β1. […] Samples were then immunoblotted with antibodies against SMAD2/3 (#3102, Cell Signaling), phosphorylated SMAD2 (pSMAD2, #3108, Cell Signaling), phosphorylated SMAD3 (pSMAD3, #9520, Cell Signaling) and actin (MAB1501R, Millipore). Densitometry was carried out using Quantity One software (version 4.6.6, Bio-Rad).

[6] = 10 ng/mL TGF-β1, days 3, 7, 14 and 21

Q: What does the source list for “TGF-β1: transforming growth factor-β1 protein (PeproTech)”?
A: GAG production by Alcian blue staining, 10 ng/mL vs 1 ng/mL TGF-β1 ([1]; 21 days): increase in GAG production and deposition; also recorded: modest increase in GAG production; GAG content by Alcian blue staining vs control pellets ([1]; day 21, 10 ng/mL TGF-β1): more GAGs; wet weight of micromass pellets over time [2]: weight loss was less pronounced; melting temperature of TGF-β1 ([3]; with 10 mM DTT, without heparin): 44 °C; melting temperature of TGF-β1 alone ([3]; without DTT): 66 °C; Type II collagen transcripts ([4]; 10 ng/mL TGF-β1): only detectable in TGF-β1-treated pellets and undifferentiated hMSCs; type X collagen transcripts relative to control pellets ([4]; 10 ng/mL TGF-β1): extremely high levels; COMP expression relative to untreated control pellets [4, 6]: increased expression; SOX9 expression relative to untreated control pellets [4, 6]: increased expression; aggrecan expression relative to untreated control pellets ([4]; 10 ng/mL TGF-β1, days 7, 14 and 21): increased expression; COMP expression, high (10 ng/mL) TGF-β1 relative to low dose TGF-β1 alone ([4]; 21 days): did not significantly alter COMP expression; type X collagen expression, high TGF-β1 relative to low TGF-β1 ([4]; day 21): significant increase; pSMAD2 signal ([5]; 1 ng/mL TGF-β1): quite intense at 6 h post treatment, and started to subside from 12 h onwards; pSMAD2 signal ([5]; 5 ng/mL and 10 ng/mL TGF-β1): remain saturated across all the time points tested; pSMAD3 signal ([5]; 5 ng/mL and 10 ng/mL TGF-β1): returned to background levels by 24 h
